Data from patent US8044056B2, “Adenine compound” (priority 2007, dated 2011).

The molecules below were run against T1, Human TLR7 (Homo sapiens, UniProt Q9NYK1) (assay: Human TLR7 reporter assay (NF-kB-SEAP)). Conditions: HEK293 cells stably carrying human TLR7 plasmid and NF-kB-SEAP reporter; 20 hours incubation; 1 nM-10 μM; absorbance 405 nm; read-out: Human TLR7 binding activity (pEC50) (converted).
T1 construct: expressed in transfected cells; host or cells: HEK293 (hTLR7/seap-293)
T1 sequence (Q9NYK1 27-1049): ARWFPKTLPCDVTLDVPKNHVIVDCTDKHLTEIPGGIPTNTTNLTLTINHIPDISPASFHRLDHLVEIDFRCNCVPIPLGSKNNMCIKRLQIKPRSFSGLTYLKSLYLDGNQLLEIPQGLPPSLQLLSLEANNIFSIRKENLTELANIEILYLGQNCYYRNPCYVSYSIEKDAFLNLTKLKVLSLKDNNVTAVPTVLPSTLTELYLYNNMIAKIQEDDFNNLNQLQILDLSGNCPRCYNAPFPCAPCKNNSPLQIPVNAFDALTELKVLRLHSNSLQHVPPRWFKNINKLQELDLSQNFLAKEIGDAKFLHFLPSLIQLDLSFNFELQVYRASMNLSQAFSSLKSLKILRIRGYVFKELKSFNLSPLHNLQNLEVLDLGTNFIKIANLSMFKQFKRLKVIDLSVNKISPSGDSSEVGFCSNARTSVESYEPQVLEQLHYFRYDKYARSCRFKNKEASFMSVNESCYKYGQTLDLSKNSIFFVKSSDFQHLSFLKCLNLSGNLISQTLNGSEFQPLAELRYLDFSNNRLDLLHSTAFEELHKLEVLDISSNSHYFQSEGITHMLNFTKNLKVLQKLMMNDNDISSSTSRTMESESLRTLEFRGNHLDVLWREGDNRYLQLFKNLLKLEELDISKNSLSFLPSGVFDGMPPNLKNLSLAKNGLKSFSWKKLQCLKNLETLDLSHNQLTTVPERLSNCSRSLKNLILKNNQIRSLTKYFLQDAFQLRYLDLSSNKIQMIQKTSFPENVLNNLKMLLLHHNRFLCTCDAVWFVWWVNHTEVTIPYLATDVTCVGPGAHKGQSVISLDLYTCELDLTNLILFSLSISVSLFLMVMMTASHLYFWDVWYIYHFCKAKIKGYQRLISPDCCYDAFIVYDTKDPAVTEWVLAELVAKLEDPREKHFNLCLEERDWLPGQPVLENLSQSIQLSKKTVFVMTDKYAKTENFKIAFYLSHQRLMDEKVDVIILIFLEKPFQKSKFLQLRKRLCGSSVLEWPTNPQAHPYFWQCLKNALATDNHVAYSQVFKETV
Type: cell-based
Procedure: Human TLR7 or rat TLR7 plasmid and a reporter plasmid (NF-kB-SEAP) stably-induced HEK293 cells were suspended in DMEM media (10% FBS, 1% NEAA, 10 μg/mL blastocidin S HCl, 100 ug/mL Zeocin), and the suspension was seeded on a 96-well plate in an amount of 90 μl/well (hTLR7/seap-293: 20000 cells/well, rTLR7/seap-293: 25000 cells/well).
To the cells seeded on the 96-well plate was added a test compound wherein DMSO stock solution (2 μl) was hundredfold diluted with medium (200 μl) in an amount of 10 μl/well (final concentration; 1 nM-10 μM, common ratio 3). The mixture was stirred by tapping in the side of the plate, and then incubated for 20 hours in a CO2 incubator. To the cells stimulated by a test compound was added a substrate for reporter assay (substrate for SEAP, pNPP) in an amount of 50 μl/well. Ten minutes after the addition of the substrate, a quenching solution (4N NaOH) was added in an amount of 50 μl/well, and the enzymatic reaction was quenched. Top seal A was attached on the plate, and the absorbance was measured by microplate reader (405 nm).

Row | SMILES | EC50 [nM]
1 | CCCCOc1nc(N)c2[nH]c(=O)n(CCCN3CCN(C/C=C/c4ccccc4)CC3)c2n1 [Example 4, 2-Butoxy-9-(3-[4-cinnamylpiperazin-1-yl]propyl)-7,8-dihydro-8-oxoadenine] | 794
2 | CCCCOc1nc(N)c2[nH]c(=O)n(CCCCCCCN3CCN(c4ccc(C(C)=O)cc4)CC3)c2n1 [Example 5, 9-(7-[4-(4-Acetylphenyl)piperazin-1-yl]heptyl-2-butoxy-7,8-dihydro)-8-oxoadenine] | 158
3 | CCCCOc1nc(N)c2[nH]c(=O)n(CCCCCCCN3CCN(c4ccncc4)CC3)c2n1 [Example 6, 2-Butoxy-7,8-dihydro-9-(7-[4-(4-pyridyl)piperazin-1-yl]heptyl)-8-oxoadenine] | 31.6
4 | CCCCOc1nc(N)c2[nH]c(=O)n(CCCCCCCN3CCC(Oc4ccc(Cl)cc4C)CC3)c2n1 [Example 7, 2-Butoxy-9-(7-[4-(4-chloro-2-methylphenoxy)piperidin-1-yl]heptyl)-7,8-dihydro-8-oxoadenine] | 631
5 | CCCCOc1nc(N)c2[nH]c(=O)n(CCCCCCCN3CCN(c4ccc(OC)cc4)CC3)c2n1 [Example 8, 2-Butoxy-7,8-dihydro-9-(7-[4-(4-methoxyphenyl)piperazin-1-yl]heptyl)-8-oxoadenine] | 251
